In data set [1] the test system is SH-SY5Y. Briefly: Neuroprotective activity against amyloid beta (1 to 40)-induced cell death in human SH-SY5Y cells assessed as increase in cell viability at 10 uM after 48 hrs by XTT assay. In kind it is functional, cell-based. In general terms: Tetrazolium dyes change colour on reduction, which living cells bring about.
Data set [2] addresses Acetylcholinesterase (Electrophorus electricus) (UniProt O42275). Nature of the data set: Inhibition of electric eel AChE-induced amyloid beta (1 to 40) aggregation at 25 uM measured every 24 hrs for 7 days by Thioflavin T based fluorometric assay relative to control.
Data set [3] addresses T1, Acetylcholinesterase (Electrophorus electricus, UniProt O42275). Briefly: Mixed-type inhibition of electric eel AChE using acetylthiocholine as substrate preincubated for 15 mins followed by substrate addition by Dixon plot analysis.
Data set [4] is described as follows: in vitro. Particulars: human, SH-SY5Y cells.
Description: Neurotoxicity in human SH-SY5Y cells assessed as cell viability at 50 uM after 24 hrs by XTT assay relative to control
Data set [5] deals with Acetylcholinesterase (Electrophorus electricus) (UniProt O42275). Particulars: 25 uM.
Description: Inhibition of electric eel AChE-induced amyloid beta (1 to 40) aggregation at 25 uM measured every 24 hrs for 7 days by Thioflavin T based fluorometric assay relative to propidium iodide
For data set [6], the system named is SH-SY5Y. Nature of the data set: Neuroprotective activity against 20 nM okadaic acid-induced cell death in human SH-SY5Y cells at 5 to 10 uM after 24 hrs by phase contrast microscopic analysis. The class given is functional, cell-based.
Data set [7] can be described thus: in vitro. Conditions: human, SH-SY5Y cells. The source holds these as a separate data set.
Description: Neurotoxicity in human SH-SY5Y cells assessed as cell viability at 10 uM after 24 hrs by XTT assay relative to control
Data set [8] in a line: in vitro. Conditions: human, HepG2 cells.
Description: Hepatotoxicity in human HepG2 cells assessed as reduction in cell viability by MTT assay
The nature of data set [9]: in vitro. Particulars: human, SH-SY5Y cells. The source holds these as a separate data set.
Description: Neurotoxicity in human SH-SY5Y cells assessed as cell viability at 1 uM after 24 hrs by XTT assay relative to control
Data set [10] is described as follows: in vitro. Particulars: human, SH-SY5Y cells. The source holds these as a separate data set.
Description: Neurotoxicity in human SH-SY5Y cells assessed as cell viability at 5 uM after 24 hrs by XTT assay relative to control
Data set [11] can be described thus: in vitro. Conditions: human, SH-SY5Y cells. This is another data set of the same source.
Description: Neurotoxicity in human SH-SY5Y cells assessed as cell viability at 25 uM after 24 hrs by XTT assay relative to control
For data set [12], the system named is SH-SY5Y. Briefly: cells. Conditions: Homo sapiens, 24 h.
Description: Neuroprotective activity against rotenone/oligomycin-A-induced cell death in human SH-SY5Y cells assessed as increase in cell viability after 24 hrs by XTT assay
In data set [13] the target is Acetylcholinesterase (Homo sapiens) (UniProt P22303). Briefly: Inhibition of AChE in human SH-SY5Y cells assessed as inhibition of amyloid beta (1 to 40) (unknown origin)-induced tau phosphorylation at Ser-396 residue at 5 to 10 uM after 48 hrs by Western blot analysis. In kind it is cell-based.
The test system of data set [14] is SH-SY5Y. Briefly: Neuroprotective activity in human SH-SY5Y cells assessed as reversal of 15 nM okadaic acid-induced cell death at 1 to 10 uM after 24 hrs by XTT assay. In kind it is functional, cell-based.
Data set [15] deals with Cholinesterase (Equus caballus) (UniProt P81908). Briefly: Inhibition of horse serum BuChE using […] as substrate at 50 uM preincubated for 15 mins followed by substrate addition by Ellman's method relative to control. (In general: DTNB colorimetry detects thiols as they appear.)
Data set [16] deals with SH-SY5Y. Briefly: Neuroprotective activity in human SH-SY5Y cells assessed as reversal of 20 nM okadaic acid-induced cell death at 1 to 10 uM after 24 hrs by XTT assay. The class given is functional, cell-based.
Data set [17] concerns the target Acetylcholinesterase (Homo sapiens) (UniProt P22303). Briefly: Inhibition of AChE in human SH-SY5Y cells assessed as inhibition of amyloid beta (1 to 40) (unknown origin)-induced amyloid beta aggregation at 5 to 10 uM measured every 24 hrs for 7 days by Thioflavin T based fluorometric assay. The class given is cell-based.
Data set [18] has as its target T1, Acetylcholinesterase.
Description: Inhibition of electric eel AChE using acetylcholine as substrate preincubated for 15 mins followed by substrate addition by Ellman's method
A short description of data set [19]: in vitro. Particulars: human, SH-SY5Y cells. The source holds these as a separate data set.
Description: Neurotoxicity in human SH-SY5Y cells assessed as cell viability at 0.1 uM after 24 hrs by XTT assay relative to control
A short description of data set [20]: in vitro. Conditions: human, HepG2 cells. This is another data set of the same source.
Data set [21] has as its system SH-SY5Y. Briefly: Neuroprotective activity against amyloid beta (1 to 40)-induced cell death in human SH-SY5Y cells at 10 uM after 48 hrs by phase contrast microscopic analysis. In kind it is functional, cell-based.

Activity calls are given as the source filed them. The calls are words filed in the database; no cut-off is given here.

The term inhibition denotes how much of the control response was suppressed. The Ki is a measure of affinity in units of concentration, obtained from inhibition or displacement. The viability is a read-out of living cells in per cent, often relative to untreated cells. For orientation: EC50 means the concentration at which the effect is half-maximal. What is called IC50 is the point on the concentration scale where inhibition reaches its midpoint. Lower therefore signals inhibition by little substance.

Sequence of Acetylcholinesterase (Electrophorus electricus) (O42275 24-633 limits assumed): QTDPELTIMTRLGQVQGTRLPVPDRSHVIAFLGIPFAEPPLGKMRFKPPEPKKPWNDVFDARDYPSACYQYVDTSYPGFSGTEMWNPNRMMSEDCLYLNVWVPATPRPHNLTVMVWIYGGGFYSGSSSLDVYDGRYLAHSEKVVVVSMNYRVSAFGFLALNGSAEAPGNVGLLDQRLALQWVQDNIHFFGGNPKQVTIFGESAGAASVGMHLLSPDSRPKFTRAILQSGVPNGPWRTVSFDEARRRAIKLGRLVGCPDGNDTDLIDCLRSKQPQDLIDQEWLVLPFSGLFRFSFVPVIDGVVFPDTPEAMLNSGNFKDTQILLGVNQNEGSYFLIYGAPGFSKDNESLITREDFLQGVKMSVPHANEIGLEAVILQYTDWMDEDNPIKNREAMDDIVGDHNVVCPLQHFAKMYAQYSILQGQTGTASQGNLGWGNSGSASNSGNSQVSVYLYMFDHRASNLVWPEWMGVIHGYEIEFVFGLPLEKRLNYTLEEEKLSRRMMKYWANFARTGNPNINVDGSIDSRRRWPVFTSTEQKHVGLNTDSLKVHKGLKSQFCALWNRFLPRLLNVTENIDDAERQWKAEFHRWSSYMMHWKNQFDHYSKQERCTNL
Sequence of Acetylcholinesterase (Homo sapiens) (P22303 whole entry): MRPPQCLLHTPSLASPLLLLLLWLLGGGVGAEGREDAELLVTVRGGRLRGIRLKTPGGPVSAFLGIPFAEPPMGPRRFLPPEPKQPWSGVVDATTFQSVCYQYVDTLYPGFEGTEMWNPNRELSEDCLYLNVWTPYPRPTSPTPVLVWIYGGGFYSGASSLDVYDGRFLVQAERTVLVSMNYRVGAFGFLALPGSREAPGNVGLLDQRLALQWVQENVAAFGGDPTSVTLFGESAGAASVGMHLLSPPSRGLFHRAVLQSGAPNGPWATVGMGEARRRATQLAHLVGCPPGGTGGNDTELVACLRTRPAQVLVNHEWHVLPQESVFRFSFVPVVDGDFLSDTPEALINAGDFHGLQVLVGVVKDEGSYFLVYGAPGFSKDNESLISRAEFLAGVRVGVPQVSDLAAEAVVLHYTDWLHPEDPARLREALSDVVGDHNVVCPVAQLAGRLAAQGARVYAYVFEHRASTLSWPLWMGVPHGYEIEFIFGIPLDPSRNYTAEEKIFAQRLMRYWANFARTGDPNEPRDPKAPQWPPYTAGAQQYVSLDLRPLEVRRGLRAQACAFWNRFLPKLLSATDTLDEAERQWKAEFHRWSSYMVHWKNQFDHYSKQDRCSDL
T1 sequence (O42275 whole entry): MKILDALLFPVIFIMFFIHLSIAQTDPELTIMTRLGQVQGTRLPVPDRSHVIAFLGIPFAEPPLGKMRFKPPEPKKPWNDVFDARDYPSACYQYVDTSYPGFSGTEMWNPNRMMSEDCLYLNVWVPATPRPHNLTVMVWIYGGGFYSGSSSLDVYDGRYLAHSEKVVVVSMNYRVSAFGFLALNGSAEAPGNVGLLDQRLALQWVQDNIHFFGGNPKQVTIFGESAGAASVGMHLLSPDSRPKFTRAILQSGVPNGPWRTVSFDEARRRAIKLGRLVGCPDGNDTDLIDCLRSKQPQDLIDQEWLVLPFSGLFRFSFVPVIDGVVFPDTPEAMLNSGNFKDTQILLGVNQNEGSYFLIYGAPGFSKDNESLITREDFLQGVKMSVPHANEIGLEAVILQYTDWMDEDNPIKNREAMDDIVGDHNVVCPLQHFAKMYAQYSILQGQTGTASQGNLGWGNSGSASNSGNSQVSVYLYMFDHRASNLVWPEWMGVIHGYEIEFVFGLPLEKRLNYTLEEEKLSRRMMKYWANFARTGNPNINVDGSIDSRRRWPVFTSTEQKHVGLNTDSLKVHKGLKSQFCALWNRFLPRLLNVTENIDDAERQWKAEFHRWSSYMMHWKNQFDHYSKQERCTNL
Sequence of Cholinesterase (Equus caballus) (P81908 whole entry): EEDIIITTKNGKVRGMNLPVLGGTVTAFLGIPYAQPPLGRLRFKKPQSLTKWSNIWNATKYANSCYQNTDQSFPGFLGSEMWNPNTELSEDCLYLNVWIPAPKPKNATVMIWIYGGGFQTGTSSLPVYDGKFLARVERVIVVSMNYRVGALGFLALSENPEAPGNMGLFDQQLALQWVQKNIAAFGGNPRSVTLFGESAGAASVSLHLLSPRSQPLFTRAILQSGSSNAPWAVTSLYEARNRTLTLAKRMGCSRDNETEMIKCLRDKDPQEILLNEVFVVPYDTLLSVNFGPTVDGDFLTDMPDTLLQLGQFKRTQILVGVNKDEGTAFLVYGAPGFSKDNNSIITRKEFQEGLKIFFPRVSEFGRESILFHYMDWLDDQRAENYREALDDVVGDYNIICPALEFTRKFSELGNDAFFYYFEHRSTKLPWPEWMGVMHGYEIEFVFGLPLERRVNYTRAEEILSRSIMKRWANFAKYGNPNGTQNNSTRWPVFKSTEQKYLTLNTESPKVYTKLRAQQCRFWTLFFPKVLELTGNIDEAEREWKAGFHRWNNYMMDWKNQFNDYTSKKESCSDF

As to `COC(=O)C1=C(C)Oc2nc3c(c(N)c2C1c1cc2ccc(OC)cc2nc1Cl)CCCC3` (stereo unspecified), the result with SH-SY5Y [1], in the data set on SH-SY5Y [6], in the data set on SH-SY5Y [14], in the data set on SH-SY5Y [16] and in the data set on SH-SY5Y [21] was Active. Moreover, the values for the inhibition in data set [2], in data set [5] and in [15] were 75%, 65% and 50%, respectively. The compound further showed a Ki at Acetylcholinesterase [3] of 14.2 nM. Further, the viability at 24 h, 50 µM in the data set “in vitro [4]” worked out at 82.5%. Also, the viability at 24 h, 10 µM in “in vitro [7]” worked out at 113%. Also, the EC50 in “in vitro [8]” came out at 622000 nM; in the data set on SH-SY5Y [12] it was 630 nM. The viability at 24 h, 1 µM in the data set “in vitro [9]” stood at 105%. Besides, the viability at 24 h, 5 µM in “in vitro [10]” stood at 132%. Also, the viability at 24 h, 25 µM in “in vitro [11]” was determined as 133%. For the same compound, the inhibition entry in data set [13] and in data set [17] was “Active” in each case. The IC50 against Acetylcholinesterase [18] was 470 nM. Besides, the viability at 24 h, 0.1 µM in the data set “in vitro [19]” turned out to be 128%. Further, in the data set “in vitro [20]”, the selectivity ratio is 3.4.
